These results are taken from PubChem BioAssay AID328 (DTP/NCI, 2004).

Structures are written as SMILES. Values joined by “and” are separate entries in the source; they are usually repeats but may differ in a detail not shown here. Equal entries are not always repeated. Toxic doses and inconclusive results are not listed.

In this experiment the test system is BDF1 mice, P388 leukemia ip, median survival T/C. In words: NCI In Vivo Anticancer Drug Screen. Data for tumor model P388 Leukemia (intraperitoneal) in B6D2F1 (BDF1) mice. Particulars: endpoint: median survival time, higher = longer survival. In outline:
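Steps: implant the tumour, treat one group with compound and another with vehicle, record survival, then divide treated by control.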

The mark [1] stands for this setting: dose: 100.0 mg/kg/injection, schedule: Q01DX009 (ip), vehicle: saline with Tween-80.
Where [2] appears, read: dose: 100.0 mg/kg/injection, schedule: Q04DX003 (ip), vehicle: saline with Tween-80.
Setting [3] is: dose: 200.0 mg/kg/injection, schedule: Q04DX003 (ip), vehicle: saline with Tween-80.
The mark [4] stands for this setting: dose: 400.0 mg/kg/injection, schedule: Q04DX003 (ip), vehicle: saline with Tween-80.
Setting [5] is: dose: 100.0 mg/kg/injection, schedule: Q01DX009 (ip), vehicle: saline.
The mark [6] stands for this setting: dose: 200.0 mg/kg/injection, schedule: Q01DX009 (ip), vehicle: saline.

Consider `Nc1c(C(=O)O)ccc2c1C(=O)c1ccccc1C2=O`, for which the T/C is 87 % of control (dose: 44.0 mg/kg/injection, schedule: Q04DX003 (ip), vehicle: gum acacia); 92 % of control (dose: 50.0 mg/kg/injection, schedule: Q01DX009 (ip), vehicle: gum acacia); 115 % of control (dose: 67.0 mg/kg/injection, schedule: Q04DX003 (ip), vehicle: Klucel (hydroxypropylcellulose) (HPC)); 100 % of control (dose: 67.0 mg/kg/injection, schedule: Q04DX003 (ip), vehicle: gum acacia); 103 % of control (dose: 100.0 mg/kg/injection, schedule: Q01DX009 (ip), vehicle: gum acacia); 120 % of control (dose: 100.0 mg/kg/injection, schedule: Q04DX003 (ip), vehicle: Klucel (hydroxypropylcellulose) (HPC)). Besides, the T/C runs as follows: (dose: 100.0 mg/kg/injection, schedule: Q04DX003 (ip), vehicle: gum acacia) 87 % of control; (dose: 150.0 mg/kg/injection, schedule: Q04DX003 (ip), vehicle: Klucel (hydroxypropylcellulose) (HPC)) 110 % of control; (dose: 150.0 mg/kg/injection, schedule: Q04DX003 (ip), vehicle: gum acacia) 116 % of control.
Regarding `O=C(NC(Cc1ccccc1)C(=O)O)OCc1ccccc1` (stereo not drawn), the T/C was 120 % of control under setting [1], 92 % of control under setting [2], 100 % of control under setting [3] and 107 % of control under setting [4].
In the case of `O=C(CBr)CC(=O)Nc1ccccc1`, the T/C (dose: 12.5 mg/kg/injection, schedule: Q01DX009 (ip), vehicle: saline with Tween-80) is 100 % of control.
Regarding `O=C(/C=C/c1ccc(Cl)cc1)NCC(O)CO` (stereo not drawn), the T/C (dose: 400.0 mg/kg/injection, schedule: Q01DX009 (ip), vehicle: water) is 91 % of control.
As for `Clc1nc2ccccc2n2nnnc12`, the T/C runs as follows: (dose: 5.0 mg/kg/injection, schedule: Q01DX009 (ip), vehicle: saline with Tween-80) 105 % of control; (dose: 10.0 mg/kg/injection, schedule: Q01DX009 (ip), vehicle: saline with Tween-80) 105 % of control; (dose: 12.5 mg/kg/injection, schedule: Q01DX009 (ip), vehicle: saline) 94 % of control; (dose: 20.0 mg/kg/injection, schedule: Q01DX009 (ip), vehicle: saline with Tween-80) 107 % of control; (dose: 25.0 mg/kg/injection, schedule: Q01DX009 (ip), vehicle: saline) 97 % of control.
Turning to `Cc1ccc2c(c1)N=Cc1ccccc1O2`, the T/C reads like this: (dose: 50.0 mg/kg/injection, schedule: Q01DX009 (ip), vehicle: saline + alcohol) 104 % of control; (dose: 100.0 mg/kg/injection, schedule: Q01DX009 (ip), vehicle: saline + alcohol) 110 % of control; (dose: 200.0 mg/kg/injection, schedule: Q01DX009 (ip), vehicle: saline + alcohol) 106 % of control.
Consider `OC(CCCCC(O)(c1ccccc1)c1ccccc1)(c1ccccc1)c1ccccc1`, for which the T/C by setting is: (dose: 100.0 mg/kg/injection, schedule: Q01DX001 (ip), vehicle: Klucel (hydroxypropylcellulose) (HPC)) 105 % of control; (dose: 200.0 mg/kg/injection, schedule: Q01DX001 (ip), vehicle: Klucel (hydroxypropylcellulose) (HPC)) 115 % of control; (dose: 400.0 mg/kg/injection, schedule: Q01DX001 (ip), vehicle: Klucel (hydroxypropylcellulose) (HPC)) 100 % of control.
Consider `CC1(C)N=C(N)N=C(N)N1c1ccc(CNC(=O)Nc2ccc(S(=O)(=O)F)cc2)cc1`, for which the T/C by setting is: under setting [5], 115 % of control; (dose: 100.0 mg/kg/injection, schedule: Q04DX003 (ip), vehicle: saline) 150 % of control; (dose: 132.0 mg/kg/injection, schedule: Q04DX003 (ip), vehicle: saline) 181 % of control and 190 % of control; under setting [6], 100 % of control; (dose: 200.0 mg/kg/injection, schedule: Q04DX003 (ip), vehicle: saline) 150 % of control and 177 % of control and 205 % of control; (dose: 300.0 mg/kg/injection, schedule: Q04DX003 (ip), vehicle: saline) 230 % of control and 154 % of control. The T/C (dose: 400.0 mg/kg/injection, schedule: Q04DX003 (ip), vehicle: saline) is 163 % of control.
As for `Cc1ccc(S(=O)C(C)C(Cl)c2ccccc2)cc1` (stereo not drawn), the T/C is 98 % of control (dose: 50.0 mg/kg/injection, schedule: Q01DX009 (ip), vehicle: saline with Tween-80); 106 % of control under setting [1]; 100 % of control (dose: 200.0 mg/kg/injection, schedule: Q01DX009 (ip), vehicle: saline with Tween-80).
Turning to `O=P(OCc1ccccc1)(N(CCCl)CCCl)N1CCN(P(=O)(OCc2ccccc2)N(CCCl)CCCl)CC1` (stereo not drawn), the T/C was 172 % of control (dose: 132.0 mg/kg/injection, schedule: Q04DX003 (ip), vehicle: saline with Tween-80); 154 % of control and 172 % of control under setting [3].
On to `CC(O)C(N)C(=O)NCCc1nc(-c2nc(C(=O)NCCCBr)cs2)cs1` (stereo not drawn), for which the T/C is 106 % of control (dose: 50.0 mg/kg/injection, schedule: Q01DX009 (ip), vehicle: saline); 94 % of control under setting [5]; 103 % of control under setting [6].
With `CCOC(=O)Nc1cc2c(c(N)n1)N=C(c1ccccc1)CN2`, the T/C (dose: 1.0 mg/kg/injection, schedule: Q01DX009 (ip), vehicle: saline with Tween-80) was 115 % of control; the T/C (dose: 2.0 mg/kg/injection, schedule: Q01DX009 (ip), vehicle: saline with Tween-80) was 151 % of control; the T/C (dose: 3.0 mg/kg/injection, schedule: Q01DX009 (ip), vehicle: saline with Tween-80) is 151 % of control; the T/C (dose: 3.0 mg/kg/injection, schedule: Q04DX003 (ip), vehicle: saline with Tween-80) was 117 % of control.
As to `CC(=O)OCC(=O)[C@@]12OC(C)(C)O[C@@H]1C[C@H]1[C@@H]3CC(C=O)=C4C=C(OCCCl)CC[C@]4(C)[C@@]3(F)[C@@H](O)C[C@@]12C`, the T/C is 95 % of control (dose: 0.39 mg/kg/injection, schedule: Q01DX009 (ip), vehicle: Klucel (hydroxypropylcellulose) (HPC)); 107 % of control and 113 % of control (dose: 0.78 mg/kg/injection, schedule: Q01DX009 (ip), vehicle: Klucel (hydroxypropylcellulose) (HPC)); 106 % of control and 113 % of control (dose: 1.56 mg/kg/injection, schedule: Q01DX009 (ip), vehicle: Klucel (hydroxypropylcellulose) (HPC)); 104 % of control (dose: 2.3 mg/kg/injection, schedule: Q04DX003 (ip), vehicle: Klucel (hydroxypropylcellulose) (HPC)); 100 % of control (dose: 3.12 mg/kg/injection, schedule: Q01DX009 (ip), vehicle: Klucel (hydroxypropylcellulose) (HPC)); 105 % of control (dose: 3.13 mg/kg/injection, schedule: Q01DX009 (ip), vehicle: Klucel (hydroxypropylcellulose) (HPC)). Besides, the T/C reads like this: (dose: 4.6 mg/kg/injection, schedule: Q04DX003 (ip), vehicle: Klucel (hydroxypropylcellulose) (HPC)) 109 % of control; (dose: 6.25 mg/kg/injection, schedule: Q01DX009 (ip), vehicle: Klucel (hydroxypropylcellulose) (HPC)) 122 % of control; (dose: 9.3 mg/kg/injection, schedule: Q04DX003 (ip), vehicle: Klucel (hydroxypropylcellulose) (HPC)) 100 % of control; (dose: 12.5 mg/kg/injection, schedule: Q01DX009 (ip), vehicle: Klucel (hydroxypropylcellulose) (HPC)) 124 % of control; (dose: 13.0 mg/kg/injection, schedule: Q04DX003 (ip), vehicle: Klucel (hydroxypropylcellulose) (HPC)) 115 % of control; (dose: 25.0 mg/kg/injection, schedule: Q04DX003 (ip), vehicle: saline with Tween-80) 115 % of control. The T/C is, setting by setting: (dose: 30.0 mg/kg/injection, schedule: Q04DX003 (ip), vehicle: Klucel (hydroxypropylcellulose) (HPC)) 115 % of control; (dose: 45.0 mg/kg/injection, schedule: Q04DX003 (ip), vehicle: Klucel (hydroxypropylcellulose) (HPC)) 104 % of control; (dose: 50.0 mg/kg/injection, schedule: Q04DX003 (ip), vehicle: saline with Tween-80) 114 % of control; (dose: 70.0 mg/kg/injection, schedule: Q04DX003 (ip), vehicle: Klucel (hydroxypropylcellulose) (HPC)) 108 % of control; under setting [2], 124 % of control; (dose: 105.0 mg/kg/injection, schedule: Q04DX003 (ip), vehicle: Klucel (hydroxypropylcellulose) (HPC)) 113 % of control. Further, the T/C runs as follows: under setting [3], 118 % of control; under setting [4], 100 % of control.
On to `C=CCOB(OCC=C)OCC=C`, for which the T/C is 108 % of control (dose: 12.5 mg/kg/injection, schedule: Q04DX003 (ip), vehicle: saline); 100 % of control (dose: 25.0 mg/kg/injection, schedule: Q04DX003 (ip), vehicle: saline); 91 % of control (dose: 50.0 mg/kg/injection, schedule: Q04DX003 (ip), vehicle: saline).
